Converted amounts (≈) assume the structure as drawn.
How the values were obtained:
Assay type in all cases: cell-based
[1] = system: HCT-116 human colon adenocarcinoma cancer cells; test: anticancer activity against HCT-116 colon cancer cell line; conditions: for growth inhibition against the cancer cell line HCT-116 human colon carcinoma: in words
Experimental: For extraction of compounds from the CNQ140 actinomycete, the following protocol was used. Pre-washed XAD-7 resin (20 g) was added to 1 liter of culture and mixed for 1 hour. The contents were collected by filtration, washed with deionized water (1 liter) and eluted with acetone (250 ml). The extraction liquid from each successive extraction step (as shown in FIG. 1) was tested for anticancer activity (IC50) against HCT-116 colon cancer cell line. […] A second extraction step using C-18 reverse phase HPLC and a solvent of 65% MeCN in water yielded four distinct compounds with activity against the colon cancer cell line. […] The chemical structures of these compounds appear below:
(§1) As shown by the data in Table 1 below the invention therapeutic compounds have both anticancer and antibiotic activity, as illustrated in tests against HCT-116 human colon adenocarcinoma cancer cells (HCT-116); methicillin resistant Staphylococcus aureus (MRSA); and vancomycin-resistant Enterococcus faecium (VREF):
Pre-washed XAD-7 resin (20 g) was added to 1 liter of culture and mixed for 1 hour. The contents were collected by filtration, washed with deionized water (1 liter) and eluted with acetone (250 ml). The extraction liquid from each successive extraction step (as shown in FIG. 1) was tested for anti-cancer activity (IC50) against HCT-116 colon cancer cell line. […] A second chromatographic purification step for fraction CNQ140-3, using C-18 reverse phase HPLC and 65% MeCN in water, yielded four distinct CNQ140 macrolide polyol-polyene compounds with activity against the colon cancer cell line: […]

[2] = system: vancomycin-resistant Enterococcus faecium (VREF); test: antibiotic activity (MIC) against VREF
Description: as §1
(§2) As shown by the data in Table 1 below the invention therapeutic compounds have both anticancer and antibiotic activity, as illustrated in tests against HCT-116 colon cancer cells (HCT-116); methicillin resistant Staphylococcus aureus (MRSA); and vancomycin-resistant Enterococcus faecium (VREF).

all 60 cell lines = test: National Cancer Institute's 60 cancer cell line in vitro cytotoxicity assay
Description: Compounds CNQ140.996a, CNQ140.996b, and CNQ140.996c were examined in the National Cancer Institute's 60 cancer cell line, in vitro, cytotoxicity assay. The following cytoxicity data were derived for the invention compounds: […]

[3] = system: methicillin resistant Staphylococcus aureus (MRSA); test: antibiotic activity (MIC) against MRSA
Description: as §1, §2

Structure (SMILES)	IC50 ([1]; Homo sapiens, HCT-116, HCT-116 cells, read-out: HCT-116 (IC50 microgm/ml)) [µg/mL]	growth inhibition against the cancer cell line HCT-116 human colon carcinoma [1]	VREF (MIC microgm/ml) [2] [microgm/ml]	GI50 (all 60 cell lines; average over NCI 60 cell lines, read-out: Average GI50 against all 60 cell lines) [nM]	tissue type selectivity (all 60 cell lines; most sensitive: 6 of the 8 melanoma cancer types (LOX IMVI, M14, SK-MEL-2, SK-MEL-5, UACC-257, UACC-62))	MRSA (MIC microgm/ml) [3] [microgm/ml]	HCT-116 (IC50 microgm/ml) ([1]; HCT-116 cells) [microgm/ml]
CCC(O)CC1CC(O)C/C=C/[C@@H](O)C[C@@H](O)C/C(C)=C/C=C/C=C/C=C\c2cccc(O)c2C(=O)OC(CC(C)O)CC(O)C/C=C/[C@@H](O)C[C@@H](O)C/C(C)=C/C=C/C=C/C=C\c2cccc(O)c2C(=O)O1 (stereo partly shown) [CNQ140.996c]	2.6 (≈ 2.57 µM)	showed growth inhibition	0.25	5.1	significant tissue type selectivity	0.25	
CCC(O)CC1CC(O)C/C=C/[C@@H](O)C[C@@H](O)C/C(C)=C/C=C/C=C/C=C\c2cccc(O)c2C(=O)OC(CC(C)O)CC(O)C/C=C/[C@@H](O)C[C@@H](O)C/C(C)=C/C=C/C=C/C=C\c2cccc(O)c2C(=O)O1 (stereo partly shown) [CNQ140.1010]		showed growth inhibition	0.25			0.25	3.1

From US7521414B2, “Polyol macrolide antitumor-antibiotics from the marine actinomycete strain CNQ140” (priority 2003, dated 2009)
